Patent publication US20200325127A1, “PYRIDIN-3-YL ACETIC ACID DERIVATIVES AS INHIBITORS OF HUMAN IMMUNODEFICIENCY VIRUS REPLICATION” (priority 2016, published 2020)

System: NL-RLuc virus
Assay: Inhibition of HIV replication (NL-RLuc luciferase reporter virus in MT-2 cells)
Type: cell-based
Conditions: Human immunodeficiency virus 1, MT2, 120 h, read-out: Activity
From the text: Inhibition of HIV replication: A recombinant NL-RLuc proviral clone was constructed in which a section of the nef gene from NL4-3 was replaced with the Renilla Luciferase gene. This virus is fully infectious and can undergo multiple cycles of replication in cell culture. In addition, the luciferous reporter provides a simple and easy method for quantitating the extent of virus growth and consequently, the antiviral activity of test compounds. The plasmid pNLRLuc contains the proviral NL-Rluc DNA cloned into pUC18 at the PvuII site. The NL-RLuc virus was prepared by transfection of 293T cells with the plasmid pNLRLuc. Transfections were performed using the LipofectAMINE PLUS kit from Invitrogen (Carlsbad, Calif.) according to the manufacturer and the virus generated was titered in MT-2 cells. For susceptibility analyses, the titrated virus was used to infect MT-2 cells in the presence of compound, and after 5 days of incubation, cells were processed and quantitated for virus growth by the amount of expressed luciferase. Assay media was RPMI 1640 supplemented with 10% heat inactivated fetal bovine serum (FBS), 100 units/ml penicillin G/100 units/ml streptomycin, 10 mM HEPES buffer pH 7.55 and 2 mM L-glutamine. The results from at least 2 experiments were used to calculate the EC50 values. Luciferase was quantitated using the Dual Luciferase kit from Promega (Madison, Wis.). Susceptibility of viruses to compounds was determined by incubation in the presence of serial dilutions of the compound. The 50% effective concentration (EC50) was calculated by using the exponential form of the median effect equation where (Fa)=1/[1+(ED50/drug conc.)^m](Johnson V A, Byington R T. Infectivity Assay. In Techniques in HIV Research. ed. Aldovini A, Walker B D. 71-76. New York: Stockton Press. 1990). Activity equal to A refers to a compound having an EC50≤100 nM, while B and C denote compounds having an EC50 between 100 nM and 1 uM (B) or >1 uM (C).

| Structure (SMILES) | EC50 [µM] |
| --- | --- |
| Cc1nc(C)c([C@H](OC(C)(C)C)C(=O)O)c(N2CCC(C)(C)CC2)c1-c1ccc2c(c1)CCN(c1ncncc1-c1ccccc1)C2 [Compound 38] | < 0.1 |
| Cc1nc(C)c([C@H](OC(C)(C)C)C(=O)O)c(N2CCC(C)(C)CC2)c1-c1ccc2c(c1)CCN(c1cc(N3CCCC3)ncn1)C2 [Compound 48] | < 0.1 |
| Cc1nc(C)c([C@H](OC(C)(C)C)C(=O)O)c(N2CCC(C)(C)CC2)c1-c1ccc2c(c1)CCN(c1nccc(C#N)n1)C2 [Compound 26] | < 0.1 |
| Cc1nc(C)c([C@H](OC(C)(C)C)C(=O)O)c(N2CCC(C)(C)CC2)c1-c1ccc2c(c1)CCN(c1nccc(C(F)(F)F)n1)C2 [Compound 11] | < 0.1 |
| Cc1cc(N2CCc3cc(-c4c(C)nc(C)c([C@H](OC(C)(C)C)C(=O)O)c4N4CCC(C)(C)CC4)ccc3C2)ncn1 [Compound 19] | < 0.1 |
| COc1ncnc(N2CCc3cc(-c4c(C)nc(C)c([C@H](OC(C)(C)C)C(=O)O)c4N4CCC(C)(C)CC4)ccc3C2)c1C [Compound 50] | < 0.1 |
| Cc1nc(C(F)(F)F)nc(N2CCc3cc(-c4c(C)nc(C)c([C@H](OC(C)(C)C)C(=O)O)c4N4CCC(C)(C)CC4)ccc3C2)c1C [Compound 58] | < 0.1 |
| Cc1nc(C)c([C@H](OC(C)(C)C)C(=O)O)c(N2CCC(C)(C)CC2)c1-c1ccc2c(c1)CCN(c1cc(Nc3ccccc3)ncn1)C2 [Compound 53] | < 0.1 |
| Cc1nc(C)c([C@H](OC(C)(C)C)C(=O)O)c(N2CCC(C)(C)CC2)c1-c1ccc2c(c1)CCN(c1ncc(C#N)cn1)C2 [Compound 22] | 0.1 to 1 |
| Cc1nc(C)c([C@H](OC(C)(C)C)C(=O)O)c(N2CCC(C)(C)CC2)c1-c1ccc2c(c1)CCN(c1nccc(N3CCOCC3)n1)C2 [Compound 10] | < 0.1 |
| Cc1nc(C)c([C@H](OC(C)(C)C)C(=O)O)c(N2CCC(C)(C)CC2)c1-c1ccc2c(c1)CCN(c1ncccn1)C2 [Compound 18] | < 0.1 |
| COCc1cc(N2CCc3cc(-c4c(C)nc(C)c([C@H](OC(C)(C)C)C(=O)O)c4N4CCC(C)(C)CC4)ccc3C2)ncn1 [Compound 51] | < 0.1 |
| Cc1nc(C)c([C@H](OC(C)(C)C)C(=O)O)c(N2CCC(C)(C)CC2)c1-c1ccc2c(c1)CCN(c1cc(C3CC3)ncn1)C2 [Compound 43] | < 0.1 |
| Cc1nc(C)c([C@H](OC(C)(C)C)C(=O)O)c(N2CCC(C)(C)CC2)c1-c1ccc2c(c1)CCN(c1cc(O)nc(N)n1)C2 [Compound 66] | 0.1 to 1 |
| CSc1nccc(N2CCc3cc(-c4c(C)nc(C)c([C@H](OC(C)(C)C)C(=O)O)c4N4CCC(C)(C)CC4)ccc3C2)n1 [Compound 39] | < 0.1 |
| Cc1ncnc(N2CCc3cc(-c4c(C)nc(C)c([C@H](OC(C)(C)C)C(=O)O)c4N4CCC(C)(C)CC4)ccc3C2)c1F [Compound 24] | < 0.1 |
| Cc1nc(C)c([C@H](OC(C)(C)C)C(=O)O)c(N2CCC(C)(C)CC2)c1-c1ccc2c(c1)CCN(c1ccc(C(F)(F)F)nn1)C2 [Compound 35] | < 0.1 |
| COc1nc(O)nc(N2CCc3cc(-c4c(C)nc(C)c([C@H](OC(C)(C)C)C(=O)O)c4N4CCC(C)(C)CC4)ccc3C2)n1 [Compound 13] | 0.1 to 1 |
| Cc1nc(C)c([C@H](OC(C)(C)C)C(=O)O)c(N2CCC(C)(C)CC2)c1-c1ccc2c(c1)CCN(c1nc(-c3ccccc3)cs1)C2 [Compound 3] | < 0.1 |
| Cc1nc(C)c([C@H](OC(C)(C)C)C(=O)O)c(N2CCC(C)(C)CC2)c1-c1ccc2c(c1)CCN(c1nnnn1-c1ccccc1)C2 [Compound 1] | < 0.1 |
| Cc1nc(C)c([C@H](OC(C)(C)C)C(=O)O)c(N2CCC(C)(C)CC2)c1-c1ccc2c(c1)CCN(c1ncnc(N)c1C)C2 [Compound 55] | < 0.1 |

| Structure (SMILES) | EC50 [µM] |
| --- | --- |
| Cc1nc(C)c([C@H](OC(C)(C)C)C(=O)O)c(N2CCC(C)(C)CC2)c1-c1ccc2c(c1)CCN(c1ncnc(Cl)c1N)C2 [Compound 54] | < 0.1 |
| Cc1nc(C)c([C@H](OC(C)(C)C)C(=O)O)c(N2CCC(C)(C)CC2)c1-c1ccc2c(c1)CCN(c1nc3c(s1)C(=O)NCC3)C2 [Compound 4] | < 0.1 |
| Cc1nc(C)c([C@H](OC(C)(C)C)C(=O)O)c(N2CCC(C)(C)CC2)c1-c1ccc2c(c1)CCN(c1ccccn1)C2 [Compound 46] | < 0.1 |
| COc1cc(N2CCc3cc(-c4c(C)nc(C)c([C@H](OC(C)(C)C)C(=O)O)c4N4CCC(C)(C)CC4)ccc3C2)nc(OC)n1 [Compound 14] | < 0.1 |
| Cc1nc(C)c([C@H](OC(C)(C)C)C(=O)O)c(N2CCC(C)(C)CC2)c1-c1ccc2c(c1)CCN(c1cc(Cl)ncn1)C2 [Compound 27] | < 0.1 |
| COc1ccc(N2CCc3cc(-c4c(C)nc(C)c([C@H](OC(C)(C)C)C(=O)O)c4N4CCC(C)(C)CC4)ccc3C2)nn1 [Compound 47] | < 0.1 |
| Cc1nccc(N2CCc3cc(-c4c(C)nc(C)c([C@H](OC(C)(C)C)C(=O)O)c4N4CCC(C)(C)CC4)ccc3C2)n1 [Compound 41] | < 0.1 |
| Cc1nc(C)c([C@H](OC(C)(C)C)C(=O)O)c(N2CCC(C)(C)CC2)c1-c1ccc2c(c1)CCN(c1cc(N)ncn1)C2 [Compound 42] | < 0.1 |
| Cc1nc(C)c([C@H](OC(C)(C)C)C(=O)O)c(N2CCC(C)(C)CC2)c1-c1ccc2c(c1)CCN(c1ccnc(N)n1)C2 [Compound 67] | < 0.1 |
| COc1cnc(N2CCc3cc(-c4c(C)nc(C)c([C@H](OC(C)(C)C)C(=O)O)c4N4CCC(C)(C)CC4)ccc3C2)nc1 [Compound 34] | < 0.1 |
| COc1cc(N2CCc3cc(-c4c(C)nc(C)c([C@H](OC(C)(C)C)C(=O)O)c4N4CCC(C)(C)CC4)ccc3C2)ncn1 [Compound 31] | < 0.1 |
| Cc1ccnc(N2CCc3cc(-c4c(C)nc(C)c([C@H](OC(C)(C)C)C(=O)O)c4N4CCC(C)(C)CC4)ccc3C2)n1 [Compound 30] | < 0.1 |
| COc1cnc(SC)nc1N1CCc2cc(-c3c(C)nc(C)c([C@H](OC(C)(C)C)C(=O)O)c3N3CCC(C)(C)CC3)ccc2C1 [Compound 57] | < 0.1 |
| CCc1cnc(N2CCc3cc(-c4c(C)nc(C)c([C@H](OC(C)(C)C)C(=O)O)c4N4CCC(C)(C)CC4)ccc3C2)nc1 [Compound 33] | < 0.1 |
| Cc1nc(C)c([C@H](OC(C)(C)C)C(=O)O)c(N2CCC(C)(C)CC2)c1-c1ccc2c(c1)CCN(c1ncncc1F)C2 [Compound 25] | < 0.1 |
| Cc1nc(C)c([C@H](OC(C)(C)C)C(=O)O)c(N2CCC(C)(C)CC2)c1-c1ccc2c(c1)CCN(c1nnc(-c3ccccc3)cc1C#N)C2 [Compound 68] | < 0.1 |
| Cc1nc(O)cc(N2CCc3cc(-c4c(C)nc(C)c([C@H](OC(C)(C)C)C(=O)O)c4N4CCC(C)(C)CC4)ccc3C2)n1 [Compound 65] | 0.1 to 1 |
| Cc1nc(C)c([C@H](OC(C)(C)C)C(=O)O)c(N2CCC(C)(C)CC2)c1-c1ccc2c(c1)CCN(c1ccnc(C3CC3)n1)C2 [Compound 59] | < 0.1 |
| Cc1nc(C)c([C@H](OC(C)(C)C)C(=O)O)c(N2CCC(C)(C)CC2)c1-c1ccc2c(c1)CCN(c1cc(-n3ccnc3)ncn1)C2 [Compound 49] | < 0.1 |
| Cc1nc(C)c([C@H](OC(C)(C)C)C(=O)O)c(N2CCC(C)(C)CC2)c1-c1ccc2c(c1)CCN(c1ncc(F)cn1)C2 [Compound 21] | < 0.1 |
| Cc1nc(C)c([C@H](OC(C)(C)C)C(=O)O)c(N2CCC(C)(C)CC2)c1-c1ccc2c(c1)CCN(c1ccncn1)C2 [Compound 20] | < 0.1 |

Same assay, conditions: Human immunodeficiency virus 1, MT2, 120 h, read-out: EC50 μM

| Structure (SMILES) | EC50 [µM] |
| --- | --- |
| Cc1nc(C)c([C@H](OC(C)(C)C)C(=O)O)c(N2CCC(C)(C)CC2)c1-c1ccc2c(c1)CCN(c1cc(N3CCCC3)ncn1)C2 [Compound 48] | 0.003 |
| Cc1nc(C)c([C@H](OC(C)(C)C)C(=O)O)c(N2CCC(C)(C)CC2)c1-c1ccc2c(c1)CCN(c1nccc3ncncc13)C2 [Compound 86] | 0.001 |
| Cc1nc(C)c([C@H](OC(C)(C)C)C(=O)O)c(N2CCC(C)(C)CC2)c1-c1ccc2c(c1)CCN(c1ncc3cc(Br)ccc3n1)C2 [Compound 72] | 0.004 |
| Cc1nc(C)c([C@H](OC(C)(C)C)C(=O)O)c(N2CCC(C)(C)CC2)c1-c1ccc2c(c1)CCN(c1nccc3ccccc13)C2 [Compound 78] | 0.003 |
| Cc1nc(C)c([C@H](OC(C)(C)C)C(=O)O)c(N2CCC(C)(C)CC2)c1-c1ccc2c(c1)CCN(c1ccnc3cccnc13)C2 [Compound 88] | 0.001 |
| COc1cc2ncnc(N3CCc4cc(-c5c(C)nc(C)c([C@H](OC(C)(C)C)C(=O)O)c5N5CCC(C)(C)CC5)ccc4C3)c2cc1OC [Compound 84] | 0.002 |
| Cc1nc(C)c([C@H](OC(C)(C)C)C(=O)O)c(N2CCC(C)(C)CC2)c1-c1ccc2c(c1)CCN(c1cc(O)nc(N)n1)C2 [Compound 66] | 0.32 |
| Cc1nc(C)c([C@H](OC(C)(C)C)C(=O)O)c(N2CCC(C)(C)CC2)c1-c1ccc2c(c1)CCN(c1ccc(C(F)(F)F)nn1)C2 [Compound 35] | 0.01 |
| COc1nc(O)nc(N2CCc3cc(-c4c(C)nc(C)c([C@H](OC(C)(C)C)C(=O)O)c4N4CCC(C)(C)CC4)ccc3C2)n1 [Compound 13] | 0.278 |
| Cc1nc(C)c([C@H](OC(C)(C)C)C(=O)O)c(N2CCC(C)(C)CC2)c1-c1ccc2c(c1)CCN(c1nnnn1-c1ccccc1)C2 [Compound 1] | 0.006 |
| Cc1nc(C)c([C@H](OC(C)(C)C)C(=O)O)c(N2CCC(C)(C)CC2)c1-c1ccc2c(c1)CCN(c1ncnc(N)c1C)C2 [Compound 55] | 0.004 |
| Cc1nc(C)c([C@H](OC(C)(C)C)C(=O)O)c(N2CCC(C)(C)CC2)c1-c1ccc2c(c1)CCN(c1ncc3ccccc3n1)C2 [Compound 73] | 0.002 |
| Cc1nc(C)c([C@H](OC(C)(C)C)C(=O)O)c(N2CCC(C)(C)CC2)c1-c1ccc2c(c1)CCN(c1ccc3cnccc3n1)C2 [Compound 70] | 0.0005 |
| Cc1nc(C)c([C@H](OC(C)(C)C)C(=O)O)c(N2CCC(C)(C)CC2)c1-c1ccc2c(c1)CCN(c1ncc3cc(F)ccc3n1)C2 [Compound 75] | 0.003 |
| Cc1nc(C)c([C@H](OC(C)(C)C)C(=O)O)c(N2CCC(C)(C)CC2)c1-c1ccc2c(c1)CCN(c1ccncn1)C2 [Compound 20] | 0.002 |
